These results are taken from patent US11903944B1, “Experimental model using pazopanib-induced cardiotoxicity” (KING FAISAL UNIVERSITY, priority 2023, dated 2024).

Holding throughout (assay type): in vivo, Male Sprague Dawley rats
Data set [1] in a line: Blood pressure recording, noninvasive tail-cuff system, experimental animal model for hypertension. To be noted: 30 mg/kg twice daily orally for 14 days; compared to normal animals. On the procedure: (§1) This experimental protocol was permitted by the Institutional Animal Care and Use Committee of King Faisal University. All the experiments were executed in harmony with the relevant procedures and regulations of the Ethical Conduct for the Use of Animals in Research at King Faisal University. Male Sprague Dawley rats weighing 150-200 g were purchased and accommodated in polypropylene cages and upheld at 27±2° C. under a 12 h light/dark sequence. Rats were kept and observed for 1 week in the animal house. The animals were fed with standard rat feed and allowed water ad libitum.
(§2) Animals were distributed into 5 groups, each group containing 6 rats (n=6). Group 1 is the control group in which animals were injected with normal saline intraperitoneally (IP). Group 2: The animals were treated with Pazopanib 30 mg/kg twice daily orally for 14 days to induce hypertension. This group represents the “Experimental animal model for hypertension.” Group 3: The animals were treated with Pazopanib 100 mg/kg orally as a single dose. This group represents the “Experimental animal model for arrhythmia.” Group 4: The animals were treated with Pazopanib 300 mg/kg/day orally for 21 days. This group represents the “Experimental animal model for Cardiac toxicity (oral)” Group 5: The animals were treated with Pazopanib 21 mg/kg/day intraperitoneally (IP) for 30 days. This group represents the “Experimental animal model for Cardiac toxicity (IP)”
Blood pressure measurements were performed using a noninvasive computerized tail-cuff system from Emka Technologies' Systems (Paris, France), which involved placing a cuff on the animal's tail to occlude the blood flow. The pressure was raised and then slowly released. The cuff pressure when the pulse signal reappears is intended as the systolic pressure. […]
(§3) Data were expressed as mean±standard error of the mean (SEM) for six animals (n=6) in each group. Statistically significant differences between the groups were determined using one-way ANOVA followed by Tukey's test as a post-hoc analysis. […]

The nature of data set [2]: Cardiac toxicity identification: serum cardiac marker levels by ELISA. To be noted: compared with normal rats, p<0.05. On the procedure:
as §1
Animals were distributed into 5 groups, each group containing 6 rats (n=6). Group 1 is the control group in which animals were injected with normal saline intraperitoneally (IP). Group 2: The animals were treated with Pazopanib 30 mg/kg twice daily orally for 14 days to induce hypertension. This group represents the “Experimental animal model for hypertension.” Group 3: The animals were treated with Pazopanib 100 mg/kg orally as a single dose. This group represents the “Experimental animal model for arrhythmia.” Group 4: The animals were treated with Pazopanib 300 mg/kg/day orally for 21 days. […] This group represents the “Experimental animal model for Cardiac toxicity (IP)”
Blood samples were collected, and centrifuged (10 min/4000 rpm) to separate serum which was then stored in a −80° C. for biochemical analysis. Thereafter, the anaesthetized animals were sacrificed, and the hearts of different investigational groups were separated, and stored in a −80° C. for subsequent biochemical parameters determination.
ELISA kits, following the manufacturer's instructions, were used to measure serum cardiac marker levels of CPK, CK-MB, cTnT, cTnI and LDH.
(§4) Data were expressed as mean±standard error of the mean (SEM) for six animals (n=6) in each group. Statistically significant differences between the groups were determined using one-way ANOVA followed by Tukey's test as a post-hoc analysis. In all cases, probability values of p<0.05 were taken as statistically significant.
(An ELISA detects its analyte on a solid surface through an enzyme-linked reagent.)

Data set [3] can be described thus: Electrocardiogram (ECG) recording for arrhythmia identification, experimental animal model for arrhythmia. To be noted: 100 mg/kg orally single dose, after 3 hours. On the procedure:
as §1, §2
At the end of the experiments, urethane-anaesthetized rats (1.5 g/kg) were placed in a prone position on a board, and an ECG was continuously recorded using noninvasive computerized ECG apparatus from Kent Scientific (Torrington, CT, USA). Heart rate, ST segment, P wave, QT, P-R and R-R intervals, and QRS complex were calculated from ECG recordings electronically.
as §4

The subject of data set [4] is Toll-Like Receptors 4 (TLR4) gene expressions. Description: TLR4 gene expression in cardiac tissue by real-time quantitative PCR. On the procedure:
as §1
Animals were distributed into 5 groups, each group containing 6 rats (n=6). Group 1 is the control group in which animals were injected with normal saline intraperitoneally (IP). Group 2: The animals were treated with Pazopanib 30 mg/kg twice daily orally for 14 days to induce hypertension. This group represents the “Experimental animal model for hypertension.” Group 3: The animals were treated with Pazopanib 100 mg/kg orally as a single dose. […] This group represents the “Experimental animal model for Cardiac toxicity (IP)”
Blood samples were collected, and centrifuged (10 min/4000 rpm) to separate serum which was then stored in a −80° C. for biochemical analysis. […]
Total RNA was extracted from the cardiac tissue samples according to the Trizol kit instructions. […] The TLR4 primer (5′-[…]-3′ (SEQ ID NO: 1), 3′-[…]-5′ (SEQ ID NO: 2)), TLR2 (5′-[…]-3′ (SEQ ID NO: 3), 3′-[…]-5′ (SEQ ID NO: 4)), MYD88 (5′-[…]-3′ (SEQ ID NO: 5), 3′-[…]-5′ (SEQ ID NO: 6)) were used to detect and quantify related genes in the cDNA using Real-time quantitative PCR. In a 25 μL reaction volume, PCR was performed as follows: initial denaturation for 4 min at 94° C., followed by denaturation for 30 s at 94° C., annealing for 30 s at 62° C., and extension for 2 min at 72° C. for 35 cycles, and final extension for 10 min at 72° C. qPCR was applied using SYBR ExScript RT-PCR kit, and quantification examinations were accomplished via an Opticon-2 Real-time PCR reactor (MJ Research, Capital Court, Reno, NV, USA). qPCR results were obtained using Step PE Applied Biosystems (Waltham, MA, USA) software. Relative gene expression data were calculated using the (2-ΔΔCq2) method and presented as a fold change. Target gene expressions were assessed and related to the internal reference β-actin gene using the primer (5′-ATCCTGCGTCTGGACCTGG-3′ (SEQ ID NO: 7), 5′-[…]-3′ (SEQ ID NO: 8)), and the results were presented in the figures as relative expressions.
as §3

Setting [5] is: 30 mg/kg/day intraperitoneally (IP) for 21 days.
The mark [6] stands for this setting: 300 mg/kg/day orally for 21 days.

Molecules are shown by their SMILES.

Turning to `Cc1ccc(Nc2nccc(N(C)c3ccc4c(C)n(C)nc4c3)n2)cc1S(N)(=O)=O` [Pazopanib], in data set [1], the diastolic blood pressure entry was “elevated”, the mean blood pressure result was “elevated” and the systolic blood pressure result was “elevated”. In data set [2] (setting [5]), the “serum cardiac troponin I (cTnI)” value is on record as “augmented”, the “serum cardiac troponin T (cTnT)” value is on record as “augmented”, the “serum creatine kinase-myocardial bound (CK-MB)” value is “augmented” and the “serum creatine phosphokinase (CPK)” value was “augmented”. The “serum lactate dehydrogenase (LDH)” value in data set [2] (setting [5]) is given as “augmented”. Further, in data set [2] (setting [6]), the “serum cardiac troponin I (cTnI)” value is recorded as “augmented”, the “serum cardiac troponin T (cTnT)” value is given as “augmented”, the “serum creatine kinase-myocardial bound (CK-MB)” value is on record as “augmented” and the “serum creatine phosphokinase (CPK)” value is “augmented”. The “serum lactate dehydrogenase (LDH)” value in data set [2] (setting [6]) is “augmented”. For the same compound, in data set [3], the P-R interval entry is reported as “shortening”, the R-R interval result is “shortening” and the p wave duration result is listed as “shortening”. In addition, in data set [3] (compared to control, p<0.05), the “QRS interval (QRS complex duration)” value was “prolongation”, the QT interval entry is “prolongation” and the ST segment amplitude entry is “elevation”. Besides, in data set [4] (arrhythmia model: 100 mg/kg orally as a single dose), the TLR4 gene expression result is “significantly increased”. Further, in data set [4] (cardiotoxicity model: 30 mg/kg/day intraperitoneally (IP) for 30 days), the TLR4 gene expression result was “significantly increased”. Also, the TLR4 gene expression result in data set [4] (cardiotoxicity model: 300 mg/kg/day orally for 30 days) is “significantly increased”. Moreover, the TLR4 gene expression entry in data set [4] (hypertension model: 30 mg/kg twice daily orally for 14 days) is listed as “significantly increased”.
